{"source": "patent US11389398B2", "about": "“Gastroretentive treatment of nocturnal symptoms and morning akinesia in subjects with parkinson's disease” (priority 2019, dated 2022)", "origin": "cited, not measured here", "note": "Like-named read-outs stand apart in the source and are kept apart here."}
{"smiles": "N[C@@H](Cc1ccc(O)c(O)c1)C(=O)O", "note": "[levodopa, 3-hydroxy-L-Tyrosine]", "values": [{"measurement": "delay in the identification of circulating plasma levodopa levels after meals", "setting": "controlled release tablets (Contin 1998)", "result": "30 to 75", "unit": "min"}, {"measurement": "delay in the identification of circulating plasma levodopa levels after meals", "setting": "immediate release tablets (Baruzzi 1987)", "result": "29 to 60", "unit": "min"}]}
